Measurements: patent US10472610B2, “Method for generating pancreatic bud cells and therapeutic agent for pancreatic disease containing pancreatic bud cells” (Kyoto University, priority 2014, dated 2019)

Experiments:
[1] = test system: iPS cell line 585A1; test: Adherent culture protocol, Y-27632 during Stage 3, flow cytometry of PDX1/NKX6.1; format: cell-based, human; settings: four days
Procedure: Cells of iPS cell line 585A1 were seeded on a Matrigel coated 24 well plate at a density of 2.0×10^5 cells/well, and cultured in RPMI 1640 Medium (Nacalai Tesque, Inc.) supplemented with 2% B-27 (Life Technologies), 100 ng/ml of activin A (R&D systems), 3 μM of CHIR99021 (Axon Medchem) and 10 μM of Y-27632 (Wako Pure Chemical Industries, Ltd.) for one day. The medium was exchanged with RPMI 1640 Medium containing 100 ng/ml of activin A, 1 μM of CHIR99021 and 2% B-27 (Life Technologies), and the cells were cultured for two days. The medium was then exchanged with RPMI 1640 Medium containing 100 ng/ml of activin A and 2% B-27 (Life Technologies), and the cells were cultured for one day.
The medium of the culture obtained in Stage 1 was exchanged with Improved MEM Zinc Option (Invitrogen) containing 50 ng/ml of KGF (R&D systems) and 1% B-27 (Life Technologies) and the cells were cultured for three days. Subsequently, the medium was exchanged with Improved MEM Zinc Option containing 50 ng/ml of KGF, 100 ng/ml of Noggin (Peprotech), 10 nM of TTNPB (Santa Cruz Biotechnology), 0.5 μM of 3-Keto-N-aminoethyl-N′-aminocaproyldihydrocinnamoyl Cyclopamine (KAAD-cyclopamine or K-CYC) (Toronto Research Chemicals) and 1% B-27, and the cells were cultured for three days.

[2] = test system: iPS cell line 585A1; test: Modified adherent culture protocol, additives during Stage 3, flow cytometer or image analyzer; format: cell-based, human; settings: for ratio of PDX1^+NKX6.1^+ cells / ratio of NKX6.1^+ cells: compound in Stage 3 medium, modified protocol, 4 days
Procedure: Cells of iPS cell line 585A1 were seeded on a Matrigel coated 24 well plate at a density of 2.0×10^5 cells/well, and the cells were cultured in RPMI 1640 Medium (Nacalai Tesque, Inc.) supplemented with 2% B-27 (Life Technologies), to which 100 ng/ml of activin A (R&D systems), 3 μM of CHIR99021 (Axon Medchem) and 10 μM of Y-27632 (Wako Pure Chemical Industries, Ltd.) were added, for one day. The medium was exchanged with RPMI 1640 Medium containing 100 ng/ml of activin A, 1 μM of CHIR99021 and 2% B-27 (Life Technologies), and the cells were cultured for two days. In addition, the medium was exchanged with RPMI 1640 Medium containing 100 ng/ml of activin A and 2% B-27 (Life Technologies), and the cells were cultured for one day.
The medium was exchanged with Improved MEM Zinc Option (Invitrogen) containing 50 ng/ml of KGF (R&D systems) and 1% B-27 (Life Technologies), and the cells were cultured for 3 or 4 days. Subsequently, the medium was exchanged with Improved MEM Zinc Option containing 50 ng/ml of KGF, 100 ng/ml of Noggin (Peprotech), 10 nM of TTNPB (Santa Cruz Biotechnology), 0.5 μM of 3-Keto-N-aminoethyl-N′-aminocaproyldihydrocinnamoyl Cyclopamine (KAAD-cyclopamine or K-CYC) (Toronto Research Chemicals) and 1% B-27 and the cells were cultured for 2 or 3 days.

[3] = test system: human ES cell line KhES3; settings: added in Stage 3 on day 2 or after for 1-2 days
Procedure: In the figure, arrows indicate time periods when ALK5 inhibitor II was added to the medium. […] The expressions were measured by a flow cytometer. In the figure, numbers indicate the ratio of PDX1^+ and NKX6.1^+ cells contained in the culture.
The cells obtained in Stage 2 were dissociated into single cells with trypsin and seeded on a Low Attachment 96-well plate (Lipidure Coat, NOF) at a density of 3.0×10^3 to 3.0×10^4 cells/well. Improved MEM Zinc Option (15×10^4 cells/ml) containing 100 ng/ml of KGF, 100 ng/ml of Noggin, 50 ng/ml of EGF (R&D systems), 10 μM of Y-27632 and 1% B-27 was added to the plate, and the cells were further cultured for 4 to 20 days. During this time period, the medium was exchanged with fresh medium every 4 days. As a control, cells obtained in Stage 2 were dissociated into single cells with trypsin and seeded on a Matrigel coated 24 well plate (Greiner) at a density of 6.0×10^4 to 4.8×10^5 cells/cm^2 and cultured under adhesive conditions in the same medium for four days. […]
The cells obtained at four days after the start of Stage (S3d4) were treated with BD Cytofix/Cytoperm™ Kit, stained with an anti-PDX1 antibody (R&D systems) and an anti-NKX6.1 antibody (University of Iowa), and the ratio of PDX1^+ cells as well as the ratio of PDX1^+NKX6.1^+ cells were determined by using a flow cytometer.

C[C@@H](N)[C@H]1CC[C@H](C(=O)Nc2ccncc2)CC1 [Y-27632]
concentration at which the effect on the ratio of PDX1^+NKX6.1^+ cells was highest ([1]; Stage 3, adherent culture): 100 µM
ratio of PDX1^+NKX6.1^+ cells ([1]; compound in Stage 3 medium, adherent culture): increased in a concentration-dependent manner

O=S(=O)(c1cccc2cnccc12)N1CCCNCC1 [Fasudil]
concentration at which the effect on the ratio of PDX1^+NKX6.1^+ cells was highest ([2]; Stage 3, modified protocol): 50 µM
ratio of PDX1^+NKX6.1^+ cells [2]: increased in a concentration-dependent manner

Cc1cncc2cccc(S(=O)(=O)N3CCCNC[C@@H]3C)c12 [H-1152]
concentration at which the effect on the ratio of NKX6.1^+ cells was highest ([2]; Stage 3, modified protocol): 50 µM
ratio of NKX6.1^+ cells [2]: increased in a concentration-dependent manner

Cc1ccc2c(c1)C(=O)C1(O)CCN(c3ccccc3)C1=N2 (centres unmarked) [Blebbistatin]
concentration from which the ratio of PDX1^+NKX6.1^+ cells increased ([2]; Stage 3, modified protocol): 5 µM
concentration up to which the effect on the ratio of PDX1^+NKX6.1^+ cells was high ([2]; Stage 3, modified protocol): up to 20 μM
ratio of PDX1^+NKX6.1^+ cells [2]: increased

CCn1c(-c2nonc2N)nc2cnc(Oc3cccc(NC(=O)c4ccc(OCCN5CCOCC5)cc4)c3)cc21 [GSK269962]
concentration at which the effect on the ratio of NKX6.1^+ cells was highest ([2]; Stage 3, modified protocol): 1 µM
ratio of NKX6.1^+ cells [2]: increased in a concentration-dependent manner

Cc1cccc(-c2n[nH]cc2-c2ccc3ncccc3n2)n1 [ALK5 inhibitor II, 2-[3-[6-methylpyridin-2-yl]-1H-pyrazol-4-yl]-1,5-naphthyridine]
ratio of PDX1^+NKX6.1^+ cells [3]: increased

CN(C)CCOc1cc(-c2cn[nH]c2)ccc1NC(=O)C1COc2ccccc2O1 (centres unmarked) [SR3677]
concentration at which the effect on the ratio of NKX6.1^+ cells was highest ([2]; Stage 3, modified protocol): 5 µM
ratio of NKX6.1^+ cells [2]: increased in a concentration-dependent manner
